Like-named read-outs stand apart in the source and are kept apart here.
Legend:
Assay in all cases: cells
PBMC = type: cell-based, rat; conditions: Rattus norvegicus, PBMC
COS-7 = type: cell-based, African green monkey; conditions: Chlorocebus sabaeus
4T1 = type: cell-based; conditions: Mus musculus
HeLa = type: cell-based, human; conditions: Homo sapiens, HeLa
Molm-13 = type: cell-based; conditions: Homo sapiens
NB4 = type: cell-based; conditions: Homo sapiens
[1] = COS-7, 24 h, read-out: IC50 COS-7 24 h
[2] = COS-7, 48 h, read-out: IC50 COS-7 48 h
[3] = 4T1, 24 h, read-out: IC50 4T1 24 h
[4] = 4T1, 48 h, read-out: IC50 4T1 48 h
[5] = MOLM-13, 24 h, read-out: IC50 Molm 24 h
[6] = MOLM-13, 48 h, read-out: IC50 Molm 48 h
[7] = NB-4, 24 h, read-out: IC50 NB4 24 h
[8] = NB-4, 48 h, read-out: IC50 NB4 48 h
[9] = MOLM-13, 24 h, read-out: IC50 Molm
[10] = MOLM-13, 48 h, read-out: IC50 Molm

Row | Compound | IC50 (PBMC; 24 h, read-out: IC50 PBMC 24 h) [µM] | IC50 (PBMC; 48 h, read-out: IC50 PBMC 48 h) [µM] | IC50 (COS-7; [1]) [nM] | IC50 (COS-7; [2]) [nM] | IC50 (4T1; [3]) [nM] | IC50 (4T1; [4]) [nM] | IC50 (HeLa; 24 h, read-out: IC50 HeLa 24 h) [nM] | IC50 (HeLa; 48 h, read-out: IC50 HeLa 48 h) [nM] | IC50 (Molm-13; [5]) [nM] | IC50 (Molm-13; [6]) [nM] | IC50 (NB4; [7]) [nM] | IC50 (NB4; [8]) [nM] | IC50 (4T1; 4T1, 24 h, read-out: IC50 4T1) [nM] | IC50 (4T1; 4T1, 48 h, read-out: IC50 4T1) [nM] | IC50 (NB4; NB-4, 24 h, read-out: IC50 NB4) [nM] | IC50 (NB4; NB-4, 48 h, read-out: IC50 NB4) [nM] | IC50 (Molm-13; [9]) [nM] | IC50 (Molm-13; [10]) [nM]
1 | COc1ccc(C(=O)Nc2ccc([As]3SCCCS3)cc2)cc1OC [DAZ2, N-(4-(1,3,2-dithiarsinan-2-yl)phenyl)-3,4-dimethoxybenzamide] | 6.2 | 5.7 | 7100 | 3300 | 1500 | 1200 | 2300 | 1060 | 900 | 750 | 1710 | 1140 |  |  |  |  |  | 
2 | O=C(Nc1ccc([As]2SCCCS2)cc1)c1ccc2c(c1)OCO2 [PZ2, N-(4-(1,3,2-dithiarsinan-2-yl)phenyl)benzo[d][1,3]dioxole-5-carboxamide] | 6.4 | 5.3 | 4100 | 1750 | 2600 | 3400 | 700 | 440 | 1060 | 750 | 700 | 440 | 2550 ± 220 | 3350 ± 420 | 850 ± 100 |  |  | 
3 | CCc1ccc(C(=O)Nc2ccc([As]3SCCCS3)cc2)cc1 [EZ2, N-(4-(1,3,2-dithiarsinan-2-yl)phenyl)-4-ethylbenzamide] | 3.7 | 2.9 | 4200 | 2100 | 1400 | 1400 | 1010 | 810 | 1100 | 1020 | 410 | 300 | 1400 ± 120 | 1400 ± 120 |  |  |  | 
4 | O=C(Nc1ccccc1[As]1SCCCS1)c1ccc2c(c1)OCO2 [PZ5, N-(2-(1,3,2-dithiarsinan-2-yl)phenyl)benzo[d][1,3]dioxole-5-carboxamide] | 5 | 4.5 | 1010 | 820 | 400 | 830 | 260 | 140 | 270 | 240 | 260 | 140 |  |  | 300 ± 30 | 200 ± 20 |  | 
5 | COc1ccc(C(=O)Nc2ccccc2[As]2SCCCS2)cc1OC [DAZ5, N-(2-(1,3,2-dithiarsinan-2-yl)phenyl)-3,4-dimethoxybenzamide] | 4.1 | 3.5 | 1610 | 1270 | 600 | 500 | 810 | 550 | 450 | 320 | 800 | 510 |  |  |  |  |  | 
6 | O=C(Nc1ccc([As]2SCCCS2)cc1)c1ccc2c(c1)OC(F)(F)O2 [PFZ2, N-(4-(1,3,2-dithiarsinan-2-yl)phenyl)-2,2-difluorobenzo[d][1,3]dioxole-5-carboxamide] | 6.3 | 5.7 | 6000 | 3500 | 1000 | 800 | 500 | 150 | 800 | 700 | 500 | 300 |  |  |  |  |  | 
7 | O=C(Nc1ccc([As]2SCCCS2)cc1)c1ccc(F)cc1 [FZ2, N-(4-(1,3,2-dithiarsinan-2-yl)phenyl)-4-fluorobenzamide] | 5.5 | 4.7 | 3500 | 2200 | 2300 | 2200 | 1200 | 400 | 1200 | 1000 | 400 | 300 |  |  |  |  |  | 
8 | COc1cc(C(=O)Nc2ccc([As]3SCCCS3)cc2)cc(OC)c1OC [TAZ2, N-(4-(1,3,2-dithiarsinan-2-yl)phenyl)-3,4,5-trimethoxybenzamide] | 7.3 | 6.5 | 9100 | 5200 | 3500 | 2200 | 2000 | 1040 | 1600 | 1500 | 1000 | 600 |  |  |  |  |  | 
9 | Cc1ccc(C(=O)Nc2ccc([As]3SCCCS3)cc2)cc1 [MZ2, N-(4-(1,3,2-dithiarsinan-2-yl)phenyl)-4-methylbenzamide] | 3.4 | 2.7 | 3400 | 1210 | 1200 | 910 | 610 | 400 | 1200 | 800 | 400 | 300 |  | 400 ± 110 |  |  |  | 
10 | CC(=O)Oc1ccc(C(=O)Nc2ccc([As]3SCCCS3)cc2)cc1 [AZ2, 4-((4-(1,3,2-dithiarsinan-2-yl)phenyl)carbamoyl)phenyl acetate] | 5.2 | 4.9 | 2200 | 2100 | 2000 | 1000 | 800 | 500 | 1100 | 1000 | 600 | 600 |  |  | 600 ± 50 | 600 ± 30 | 1110 ± 100 | 1010 ± 20
11 | COc1cc(C(=O)Nc2ccccc2[As]2SCCCS2)cc(OC)c1OC [TAZ5, N-(2-(1,3,2-dithiarsinan-2-yl)phenyl)-3,4,5-trimethoxybenzamide] | 2.2 | 1.54 | 2000 | 1800 | 700 | 700 | 800 | 500 | 710 | 700 | 200 | 150 | 700 ± 30 | 700 ± 30 |  |  |  | 
12 | COc1cc(C(=O)Nc2ccc([As]3SCCCS3)cc2)cc(OC)c1O [HDZ2, N-(4-(1,3,2-dithiarsinan-2-yl)phenyl)-4-hydroxy-3,5-dimethoxybenzamide] | 5.8 | 4.9 | 9100 | 3500 | 1000 | 1010 | 2000 | 1010 | 600 | 600 | 800 | 500 |  |  |  |  | 600 ± 120 | 600 ± 120
13 | O=C(Nc1ccccc1[As]1SCCCS1)c1ccc(F)cc1 [FZ5, N-(2-(1,3,2-dithiarsinan-2-yl)phenyl)-4-fluorobenzamide] | 2.4 | 1.82 | 1100 | 800 | 700 | 600 | 350 | 150 | 500 | 500 | 150 | 150 |  |  | 150 ± 100 | 150 ± 20 | 500 ± 10 | 500 ± 20

Source: PMC9266561, “1,3-Benzodioxole Derivatives Improve the Anti-Tumor Efficiency of Arsenicals” (International Journal of Molecular Sciences, 2022)
